According to US4354973A, “Pyrrolo[3,4-d][2]benzazepines” (Hoffmann-La Roche Inc., priority 1981, dated 1982):

Columns and labels:
mice = assay: Footshock (fighting episodes of pairs of mice); assay type: in vivo; settings: Mus musculus; pairs of mice pretreated 1 hour prior to second shocking; 3 out of 3 pairs blocked from fighting; read-out: Footshock, 100% blocking dose
Method: A pair of mice is confined under a one liter beaker placed on a grid which presents shock to the feet. At least 5 fighting episodes are elicited in a two-minute period. Pairs of mice are marked and pretreated 1 hour prior to a second shocking. Logarithmic dose intervals are utilized up to a maximum of 100 mg/kg. At the 100% blocking dose, 3 out of 3 pairs must be blocked from fighting.

male mice = assay: Inclined Screen (paralyzing effects); assay type: in vivo; settings: Mus musculus; groups of 6 male mice; at least 4 hours observation; maximum dose 500 mg/kg; read-out: Inclined Screen, PD50
Method: Groups of 6 male mice are given the test drug (maximum dose of 500 mg/kg) and then are left on the inclined screen at least 4 hours for observation of paralyzing effects severe enough to cause them to slide off the screen. If activity is observed, additional doses are taken until at least two are reached at which some, but not all of the animals slide off the screen. Doses at which mice fall off the screen due to toxicity or excitation are not included in the calculation of PD50.

Cats = assay: Unanesthetized Cat (minimum symptoms, usually ataxia); assay type: in vivo; settings: Felis catus, oral, up to three cats/dose
Method: Cats are treated orally and observed for minimum symptoms-usually ataxia. One cat is used at a dose of 50 mg/kg. If activity is present, up to three cats/dose are used. Results are given as minimum effective dose.

Toxicity (LD50) = settings: in vivo, po

| SMILES | ED100 (mice) | ED50 (male mice) | minimal effective dose (Cats) | LD50 (Toxicity (LD50)) |
| --- | --- | --- | --- | --- |
| Clc1ccc2c(c1)C(c1ccccc1Cl)=NCc1c[nH]cc1-2 [8-Chloro-6-(2-chlorophenyl)-2H,4H-pyrrolo[3,4-d][2]benzazepine] | 1 mg/kg | 400 mg/kg | 0.25 mg/kg | > 1000 mg/kg |
| CS(=O)(=O)O.Cc1[nH]cc2c1-c1ccc(Cl)cc1C(c1ccccc1F)=NC2 [8-Chloro-6-(2-fluorophenyl)-1-methyl-2H,4H-pyrrolo[3,4-d][2]benzazepine methanesulfonate] | 2 mg/kg | 400 mg/kg | 2.5 mg/kg | > 1000 mg/kg |
| Clc1ccc2c(c1)C(c1ccccc1)=NCc1c[nH]cc1-2 [8-Chloro-6-phenyl-2H,4H-pyrrolo[3,4-d][2]benzazepine] | 25 mg/kg | 400 mg/kg | 2.5 mg/kg | > 1000 mg/kg |
